Data as given in patent US20080317723A1, “LYMPHATIC ENDOTHELIAL CELLS MATERIALS AND METHODS” (VEGENICS LIMITED, priority 2001, published 2008).
“Also recorded” adds a separate entry of the source.

B1: mVEGF-D: mature form of mouse VEGF-D, data from Baldwin et al. 2001 (protein, UniProt P97946 94-210, looked up)
Vascular endothelial growth …: FAATFYDTETLKVIDEEWQRTQCSPRETCVEVASELGKTTNTFFKPPCVNVFRCGGCCNEEGVMCMNTSTSYISKQLFEISVPLTSVPELVPVKIANHTGCKCLPTGPRHPYSIIRR

How the values were obtained:
p42/p44 MAPK = p42/p44 MAPK Thr202/Tyr204 phosphorylation in HMVE cells, Western blot; format: cell-based, human; conditions: minimum growth factor concentrations giving maximal activation
Procedure: (§1) Western blot analysis. Endothelial cells were cultured on 35 mm dishes to near confluence, starved for 24 h in serum free medium and stimulated as indicated. Wortmannin ([…]), LY294002 ([…]), PD98059 (10-25 μM) or GF109203X (2.5-5 μM) were added 1-3 h before stimulation, where indicated. DMSO, into which the inhibitors were dissolved, was used as a control. After the stimulation, the cells were lysed in lysis buffer (50 mM HEPES, pH 7.5, 150 mM NaCl, 10 mM EDTA, 100 mM NaF, 1% TritonX-100 supplemented with 2 mM Na3VO4, 0.5 mM PMSF, 100 U/ml approtinin and 10 μg/ml leupeptin). Clarified lysates were separated by SDS-PAGE, transferred to nitrocellulose and immunoblotted using the phosphospecific antibodies for Akt-Ser473, Akt-Thr308, p42/44 MAPK-Thr202/Tyr204 or CREB-Ser133. The bound antibodies were detected using horseradish peroxidase conjugated secondary antibodies and enhanced chemiluminescence detection system. The blots were stripped and reprobed with antibodies against Akt, MAPK or CREB for quantification by reading the optical densities of the signals with Multi-Analyst 2.0.1 program (Bio-Rad).
(§2) The p42/p44 MAPK activation was detected by Western blotting using phospho-Thr202/Tyr204-MAPK specific antibodies and CREB phosphorylation using phospho-Ser133 specific antibodies. The growth factor concentrations used were: VEGF 10 ng/ml, VEGF-C 100 ng/ml and VEGF-C156S 500 ng/ml. […] Effects of inhibition of protein kinase C by GF109203X, MEK1 by PD98059 and PI-3 kinase by LY294002 on p42/p44 MAPK Thr202/Tyr204 phosphorylation, CREB Ser133 phosphorylation and Akt Ser473 phosphorylation in HMVE cells. The growth factor concentrations used were: VEGF 1 ng/ml, VEGF-C 10 ng/ml and VEGF-C156S 500 ng/ml

CREB = CREB Ser133 phosphorylation in HMVE cells, Western blot; format: cell-based, human; conditions: HMVE cells
Procedure: as §1, §2

mVEGFR-2 = mVEGFR-2 (Mus musculus, UniProt P35918); conditions: mVEGFR-2, monovalent; reference: Baldwin et al. 2001; cited from earlier work
mVEGFR-3 = mVEGFR-3 (Mus musculus, UniProt P35917); conditions: reference: Baldwin et al. 2001; cited from earlier work
Sequence of mVEGFR-3 (P35917 25-1363): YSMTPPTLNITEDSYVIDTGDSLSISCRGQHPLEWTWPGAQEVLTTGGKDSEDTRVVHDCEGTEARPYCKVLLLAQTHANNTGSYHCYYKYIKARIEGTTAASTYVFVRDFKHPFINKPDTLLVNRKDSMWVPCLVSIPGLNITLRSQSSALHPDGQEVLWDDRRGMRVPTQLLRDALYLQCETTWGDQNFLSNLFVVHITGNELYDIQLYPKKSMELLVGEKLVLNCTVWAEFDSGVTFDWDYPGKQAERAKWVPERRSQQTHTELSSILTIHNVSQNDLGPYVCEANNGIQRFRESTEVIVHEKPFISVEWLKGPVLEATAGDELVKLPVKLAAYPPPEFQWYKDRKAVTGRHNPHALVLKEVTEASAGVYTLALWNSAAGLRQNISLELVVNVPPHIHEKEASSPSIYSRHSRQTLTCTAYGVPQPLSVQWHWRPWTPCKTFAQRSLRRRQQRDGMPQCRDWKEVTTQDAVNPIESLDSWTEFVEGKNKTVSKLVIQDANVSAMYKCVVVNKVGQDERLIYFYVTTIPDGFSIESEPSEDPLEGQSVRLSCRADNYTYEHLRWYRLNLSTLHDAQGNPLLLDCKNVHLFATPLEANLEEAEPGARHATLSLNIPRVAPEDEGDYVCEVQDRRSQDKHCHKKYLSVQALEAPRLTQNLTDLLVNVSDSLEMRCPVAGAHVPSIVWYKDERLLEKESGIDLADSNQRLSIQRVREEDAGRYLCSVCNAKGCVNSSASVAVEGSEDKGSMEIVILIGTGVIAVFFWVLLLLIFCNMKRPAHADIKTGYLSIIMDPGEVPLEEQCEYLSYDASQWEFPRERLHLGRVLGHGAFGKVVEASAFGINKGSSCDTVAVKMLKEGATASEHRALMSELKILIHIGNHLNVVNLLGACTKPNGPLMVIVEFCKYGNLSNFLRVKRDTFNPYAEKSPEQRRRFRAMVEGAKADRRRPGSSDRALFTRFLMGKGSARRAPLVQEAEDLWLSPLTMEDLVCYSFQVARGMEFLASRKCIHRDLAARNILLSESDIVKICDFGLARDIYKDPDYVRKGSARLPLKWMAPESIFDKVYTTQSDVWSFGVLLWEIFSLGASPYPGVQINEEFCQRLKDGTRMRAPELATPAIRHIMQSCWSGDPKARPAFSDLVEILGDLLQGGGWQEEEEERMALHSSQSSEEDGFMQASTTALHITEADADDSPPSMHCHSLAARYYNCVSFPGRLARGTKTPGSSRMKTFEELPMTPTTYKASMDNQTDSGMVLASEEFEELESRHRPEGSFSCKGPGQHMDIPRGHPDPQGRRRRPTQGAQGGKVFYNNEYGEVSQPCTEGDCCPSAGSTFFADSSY

Sequence of mVEGFR-2 (P35918 20-1345): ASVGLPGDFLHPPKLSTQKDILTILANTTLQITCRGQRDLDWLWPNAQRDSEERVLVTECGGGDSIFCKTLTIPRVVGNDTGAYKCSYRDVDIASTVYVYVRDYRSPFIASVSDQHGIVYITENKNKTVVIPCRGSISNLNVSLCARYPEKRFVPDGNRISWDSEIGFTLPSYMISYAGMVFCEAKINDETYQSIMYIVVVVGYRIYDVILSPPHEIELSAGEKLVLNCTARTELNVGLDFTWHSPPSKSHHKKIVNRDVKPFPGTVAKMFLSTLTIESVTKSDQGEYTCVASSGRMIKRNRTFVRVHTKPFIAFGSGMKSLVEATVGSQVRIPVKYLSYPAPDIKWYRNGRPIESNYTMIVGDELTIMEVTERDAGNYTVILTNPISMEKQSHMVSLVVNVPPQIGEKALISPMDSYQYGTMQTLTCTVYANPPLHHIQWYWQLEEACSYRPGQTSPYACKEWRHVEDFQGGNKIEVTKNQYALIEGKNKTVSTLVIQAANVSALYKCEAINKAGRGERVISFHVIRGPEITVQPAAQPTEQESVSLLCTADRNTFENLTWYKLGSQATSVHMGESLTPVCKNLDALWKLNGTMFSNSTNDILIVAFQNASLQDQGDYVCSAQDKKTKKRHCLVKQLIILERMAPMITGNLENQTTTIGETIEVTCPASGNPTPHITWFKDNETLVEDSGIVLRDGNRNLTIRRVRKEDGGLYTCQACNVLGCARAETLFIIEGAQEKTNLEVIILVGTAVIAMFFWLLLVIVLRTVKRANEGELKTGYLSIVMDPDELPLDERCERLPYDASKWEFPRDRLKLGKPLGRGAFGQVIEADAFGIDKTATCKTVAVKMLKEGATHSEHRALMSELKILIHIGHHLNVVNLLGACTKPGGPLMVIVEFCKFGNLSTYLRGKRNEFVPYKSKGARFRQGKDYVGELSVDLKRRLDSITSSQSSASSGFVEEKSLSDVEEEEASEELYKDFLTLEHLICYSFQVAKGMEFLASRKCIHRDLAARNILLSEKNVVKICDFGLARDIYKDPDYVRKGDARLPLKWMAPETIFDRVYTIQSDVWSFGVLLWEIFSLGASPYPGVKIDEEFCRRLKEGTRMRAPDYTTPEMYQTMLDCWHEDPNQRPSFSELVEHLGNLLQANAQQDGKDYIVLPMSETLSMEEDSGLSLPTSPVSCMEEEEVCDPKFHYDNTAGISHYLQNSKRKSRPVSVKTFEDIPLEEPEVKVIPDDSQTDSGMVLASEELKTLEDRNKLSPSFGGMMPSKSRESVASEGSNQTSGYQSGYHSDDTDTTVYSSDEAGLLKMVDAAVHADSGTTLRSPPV

Molecule | effect on p42/44 MAPK phosphorylation induced by VEGF, VEGF-C or VEGF-C156S (p42/p44 MAPK) | effect of inhibitor on VEGF induced CREB phosphorylation (CREB) | effect of inhibitor on VEGF-C induced CREB phosphorylation (CREB) | KD (mVEGFR-2) | Ka (mVEGFR-2) | Kd (mVEGFR-2) | Ka (mVEGFR-3) [M⁻¹ s⁻¹]
CN(C)CCCn1cc(C2=C(c3c[nH]c4ccccc34)C(=O)NC2=O)c2ccccc21 [GF109203X, Bisindolylmaleimide I] | completely blocked | completely blocked | completely blocked | – | – | – | –
COc1cccc(-c2cc(=O)c3ccccc3o2)c1N [PD98059] | – | but not VEGF induced CREB phosphorylation; also recorded: did not inhibit VEGF induced CREB phosphorylation | inhibited VEGFC; also recorded: decreased phosphorylation of CREB upon VEGFC stimulation | – | – | – | –
N#CC(=C(/N)Sc1ccccc1N)/C(C#N)=C(\N)Sc1ccccc1N [U0126] | – | but not VEGF induced CREB phosphorylation | inhibited VEGFC | – | – | – | –
B1 | – | – | – | no binding | no binding | no binding | 8000
